Source: article PMC8365604 (Journal of Medicinal Chemistry, 2021)
In brackets after ≈: the same amount, converted by molar mass. Counter-ions that a name gives are not always drawn.

Experiment: physchem
With `O=C(O)c1ccc(-c2ccnc(Nc3ccccc3)n2)cc1C1CCCC1` [compound 62, 2-Cyclopentyl-4-(2-(phenylamino)pyrimidin-4-yl)benzoic Acid Hydrochloride] the solubility was 19.4 µg/mL. With `O=C(O)c1ccc(-c2ccncn2)cc1C1CCCC1` [compound 56, 2-Cyclopentyl-4-(pyrimidin-4-yl)benzoic Acid] the solubility was 10.6 µg/mL (≈ 39.5 µM). With `O=C(O)c1ccc2c3c1cccc3c(=O)n1c3ccccc3nc21` [STO-609, 7-oxo-7H-benzimidazo[2,1-a]benz[de]isoquinoline-3-carboxylic acid, reference compound] the solubility was 60 µg/mL (≈ 191 µM).
